Measurements: ChEMBL document CHEMBL1133622, “Probes for narcotic receptor-mediated phenomena. 27. Synthesis and pharmacological evaluation of selective delta-opioid receptor agonists from 4-[(alphaR)-alpha-(2S,5R)-4-substituted-2, 5-dimethyl-1-piperazinyl-3-methoxybenzyl]-N,N-diethylbenzamides and their enantiomers” (J Med Chem, 2000)

Legend:
[1] = molecular target: Delta-type opioid receptor (Rattus norvegicus, UniProt P33533); assay: Inhibition of [3H]-DADLE binding to rat brain membrane Opioid receptor delta 1
Chain of Delta-type opioid receptor (P33533 whole entry): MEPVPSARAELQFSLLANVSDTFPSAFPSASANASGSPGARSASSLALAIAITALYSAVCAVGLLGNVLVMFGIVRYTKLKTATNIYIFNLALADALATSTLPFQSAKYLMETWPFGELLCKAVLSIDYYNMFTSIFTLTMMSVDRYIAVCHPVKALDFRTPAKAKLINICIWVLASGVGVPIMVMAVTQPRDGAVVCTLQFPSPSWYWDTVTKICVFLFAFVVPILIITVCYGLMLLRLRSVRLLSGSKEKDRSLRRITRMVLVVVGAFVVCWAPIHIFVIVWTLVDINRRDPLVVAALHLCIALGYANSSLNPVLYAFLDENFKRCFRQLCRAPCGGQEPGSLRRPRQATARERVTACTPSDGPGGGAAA

[2] = molecular target: Delta-type opioid receptor (Rattus norvegicus) (UniProt P33533); assay: Percent stimulation of [35S]GTP-gamma-S, binding at 10 uM; assay type: functional
Chain of Delta-type opioid receptor (Rattus norvegicus) (P33533 whole entry): as above

[3] = molecular target: Delta-type opioid receptor (Rattus norvegicus) (UniProt P33533); assay: Percent inhibition of SNC80 stimulated [35S]GTP-gamma-S, binding at 10 uM; assay type: functional
[4] = molecular target: Delta-type opioid receptor (Rattus norvegicus) (UniProt P33533); assay: (§1) Percent inhibition of SNC80 stimulated [35S]GTP-gamma-S, binding by the compound (10 uM); assay type: functional
Rattus norvegicus [5] = species on record: Rattus norvegicus; assay: as §1; assay type: functional
Rattus norvegicus [6] = species on record: Rattus norvegicus; assay: Percent stimulation of [35S]GTP-gamma-S, binding by the compound (10 uM); assay type: functional

C=C(C)CN1C[C@H](C)N([C@H](c2ccc(C(=O)N(CC)CC)cc2)c2cccc(OC)c2)C[C@H]1C
Ki [1]: 4.8 nM | Stimulation [2]: 119% | inhibition [3]: 2.3%

CCN(CC)C(=O)c1ccc([C@H](c2cccc(OC)c2)N2C[C@@H](C)N(CC)C[C@@H]2C)cc1
Ki [1]: 5.2 nM | inhibition [4]: 13% | Stimulation [2]: 45%

CCCCN1C[C@H](C)N([C@H](c2ccc(C(=O)N(CC)CC)cc2)c2cccc(OC)c2)C[C@H]1C
Ki [1]: 2.7 nM | Stimulation [2]: 66% | Inhibition (Rattus norvegicus [5]): 19%

CCN(CC)C(=O)c1ccc([C@H](c2cccc(OC)c2)N2C[C@@H](C)N(Cc3ccccc3)C[C@@H]2C)cc1
Ki [1]: 6.2 nM | Stimulation [2]: 144% | inhibition [3]: 0%

CCN(CC)C(=O)c1ccc([C@H](c2cccc(OC)c2)N2C[C@@H](C)N(C)C[C@@H]2C)cc1
Ki [1]: 4.5 nM | Stimulation [2]: 25% | inhibition [3]: 18%

CCN(CC)C(=O)c1ccc([C@H](c2cccc(OC)c2)N2C[C@@H](C)N(CCCc3ccccc3)C[C@@H]2C)cc1
Ki [1]: 16.7 nM | Stimulation [2]: 18% | inhibition [3]: 13%

CCN(CC)C(=O)c1ccc([C@H](c2cccc(OC)c2)N2C[C@@H](C)NC[C@@H]2C)cc1
Ki [1]: 4.7 nM | Stimulation [2]: 63% | inhibition [3]: 11%

CCN(CC)C(=O)c1ccc([C@H](c2cccc(OC)c2)N2C[C@@H](C)N(CC3CC3)C[C@@H]2C)cc1
Ki [1]: 3.5 nM | inhibition [4]: 18% | Stimulation [2]: 48%

CCN(CC)C(=O)c1ccc([C@H](c2cccc(OC)c2)N2C[C@@H](C)N(CCc3ccccc3)C[C@@H]2C)cc1
Ki [1]: 30.6 nM | Stimulation [2]: 10% | inhibition [3]: 30%

C=CCN1C[C@H](C)N([C@H](c2ccc(C(=O)N(CC)CC)cc2)c2cccc(OC)c2)C[C@H]1C [SNC-80]
Inhibition (Rattus norvegicus [5]): 0% | Stimulation (Rattus norvegicus [6]): 128%

CCCCCN1C[C@H](C)N([C@H](c2ccc(C(=O)N(CC)CC)cc2)c2cccc(OC)c2)C[C@H]1C
Ki [1]: 4.7 nM | inhibition [4]: 28% | Stimulation [2]: 26%

C/C=C/CN1C[C@H](C)N([C@H](c2ccc(C(=O)N(CC)CC)cc2)c2cccc(OC)c2)C[C@H]1C
Ki [1]: 1.9 nM | Stimulation [2]: 130% | inhibition [3]: 6.3%

CCCCCCN1C[C@H](C)N([C@H](c2ccc(C(=O)N(CC)CC)cc2)c2cccc(OC)c2)C[C@H]1C
Ki [1]: 10.4 nM | Stimulation [2]: 21% | inhibition [3]: 34%
